{"source": "paper PMC8317065", "about": "“UPLC-MS/MS Method for Analysis of Endocannabinoid and Related Lipid Metabolism in Mouse Mucosal Tissue” (Frontiers in Physiology, 2021)", "key": {"[1]": {"target": "T1, ABHD6 (Mus musculus, UniProt Q8R2Y0)", "T1 construct": "from tissue; host or cells: mouse (C57BL/6J) lung, 800 x g supernatant", "T1 sequence (Q8R2Y0 1-336)": "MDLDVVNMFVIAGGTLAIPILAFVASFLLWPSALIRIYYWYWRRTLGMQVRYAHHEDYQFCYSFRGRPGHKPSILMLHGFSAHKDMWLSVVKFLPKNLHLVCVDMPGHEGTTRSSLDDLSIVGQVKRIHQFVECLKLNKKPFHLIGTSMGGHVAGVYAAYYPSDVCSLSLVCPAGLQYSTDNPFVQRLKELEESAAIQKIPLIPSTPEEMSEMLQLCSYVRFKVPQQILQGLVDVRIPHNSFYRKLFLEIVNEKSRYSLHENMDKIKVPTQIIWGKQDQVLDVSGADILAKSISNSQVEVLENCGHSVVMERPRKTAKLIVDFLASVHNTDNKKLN", "experiment": "MAG degradative enzyme activity assay with WWL 70, lung protein isolates", "assay_type": "biochemical", "conditions": "for MAG metabolism, product recovery (normalized response): lung protein 25 μg, WWL 70 alone", "experimental": "(§1) Homogenized samples were centrifuged at 800 × g for 15 m at 4°C. The supernatant was collected in a 2.0 mL centrifuge tube and sonicated twice for 10 s. Samples underwent two sequential freeze thaw cycles using liquid N2. Samples were again centrifuged at 800 × g, 15 min, 4°C and the supernatant was collected. Total protein was then quantified via BCA assay and normalized between all samples. Protein isolations for each assay and each tissue were performed separately.\nSubstrate solutions were prepared by drying stock 19:2 MAG (50 nmol/reaction) under N2 steam and adding fatty acid free BSA (0.25%) and stock 50 mM Tris–HCl (pH = 8.0). The MGL substrate solution was then sonicated for 60 min while protein samples were prepared. […] MGL substrate solution was added to normalized protein (400 μL; 500 μL final volume) samples and incubated in a water bath at 37°C for 10 min (jejunum protein) or 30 min (lung protein). The reaction was stopped using 1.0 mL of chilled methanol containing the internal standard 17:1 FFA (5 nmol/reaction) and placed on ice. The products of the reaction were extracted via lipid extraction methods (see section “Lipid Extraction for Enzyme Assays”) and quantified via UPLC-MS/MS (see section “Quantitation of MAG Degradative Enzyme Activity Assay Products”).\nLipids were extracted using liquid-liquid extraction with chloroform (2.0 mL) followed by 0.8 mL 0.2-micron ultra-purified water. Samples were centrifuged (1500 × g, 5 min, 4°C) and the lower organic phase was collected. The samples were further purified, as previously described ([Batugedara et al., 2018]), via open-bed silica gel column chromatography which was washed with a 9:1 chloroform:methanol mixture to elute MAGs, FAEs, and FFAs for collection. Eluates were dried under N2 steam (99.998% pure) and resuspended in 0.2 mL of methanol:chloroform (1:1). Products were detected and quantified via UPLC-MS/MS techniques (see section “UPLC-MS/MS Detection of Analytes”).\nData was acquired using equipment described above (see section “UPLC-MS/MS Detection of Analytes”) and eluted by a gradient of water and methanol (containing 0.25% acetic acid, 5 mM ammonium acetate) at a flow rate of 0.4 mL/min and gradient: 90% methanol 0.0–0.1 min, 90–100% methanol 0.1–2.0 min, 100% methanol 2.0–2.1 min, 100–90% methanol 2.1–2.2 min, and 90% methanol 2.2–2.5 min. […] Lipids were quantified using a dilution series detecting deprotonated molecular ions in selected ion reading (SIR) mode (variable amounts of product 19:2 FFA versus fixed amount of internal standard 17:1 FFA). Extracted ion chromatograms for SIR masses were used to quantify analytes: 19:2 FFA (m/z = 293.2) product of MGL enzyme assay and 17:1 FFA (m/z = 267.2) as internal standard. Signal to noise ratio was >10 for all quantitated results."}, "[2]": {"system": "ABHD6", "design": "method as in Li et al., 2007", "conditions": "fibroblast cell line; ref Li et al., 2007; read-out: IC50 reported for a fibroblast cell line; cited from earlier work"}, "[3]": {"target": "T2, FAAH (Mus musculus, UniProt O08914)", "T2 construct": "from tissue; host or cells: mouse (C57BL/6J) lung, 21,100 x g pellet", "T2 sequence (O08914 1-579)": "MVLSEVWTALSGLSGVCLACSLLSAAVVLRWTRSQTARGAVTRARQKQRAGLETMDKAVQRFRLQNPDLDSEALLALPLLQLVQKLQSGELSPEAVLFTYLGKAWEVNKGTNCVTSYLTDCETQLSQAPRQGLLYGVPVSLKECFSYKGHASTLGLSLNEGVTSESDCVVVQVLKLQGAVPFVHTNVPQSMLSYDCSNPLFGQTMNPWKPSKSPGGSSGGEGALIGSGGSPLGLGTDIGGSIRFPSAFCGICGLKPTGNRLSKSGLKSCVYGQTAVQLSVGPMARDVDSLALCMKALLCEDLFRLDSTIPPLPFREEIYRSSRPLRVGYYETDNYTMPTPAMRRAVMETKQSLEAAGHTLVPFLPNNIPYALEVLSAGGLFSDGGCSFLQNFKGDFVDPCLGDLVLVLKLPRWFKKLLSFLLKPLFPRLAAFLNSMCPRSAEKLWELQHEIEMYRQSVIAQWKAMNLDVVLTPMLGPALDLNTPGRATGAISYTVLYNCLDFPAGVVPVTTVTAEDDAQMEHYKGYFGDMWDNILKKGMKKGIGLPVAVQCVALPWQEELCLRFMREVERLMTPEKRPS", "experiment": "FAAH (FAE degradative enzyme) activity assay, UPLC-MS/MS, jejunum epithelium protein isolates", "assay_type": "biochemical", "conditions": "jejunum epithelium protein 50 μg", "experimental": "(§2) Homogenized samples were centrifuged at 21,100 × g for 30 min at 4°C. The supernatant was discarded, and the pellets were resuspended in 750 μL of chilled 1x PBS (pH = 7.0). To ensure homogenous solution, lung samples were further homogenized using a sonic dismembranator using 8–10 root mean square (RMS) Watts of output power. Total protein was then quantified via BCA assay and normalized between all samples. Alternative protein isolation methods were required for FAAH isolation due to its subcellular localization to membranes of cytoplasmic organelles ([Gulyas et al., 2004]).\n(§3) Substrate solutions were prepared by drying stock [^2H4]-PEA (5 nmol/reaction) under N2 steam and adding fatty acid free BSA (0.25%) and stock 50 mM Tris–HCl (pH = 8.0). The substrate solution was then bath sonicated for 60 min while protein samples were prepared. […] The products of the reaction were extracted via lipid extraction methods (see section “Lipid Extraction for Enzyme Assays”) and quantified via UPLC-MS/MS (see section “Quantitation of FAE Degradative Enzyme Activity”).\n(§4) Lipids were extracted using liquid-liquid extraction with chloroform (2.0 mL) followed by 0.8 mL 0.2-micron ultra-purified water. […] Products were detected and quantified via UPLC-MS/MS techniques (see section “UPLC-MS/MS Detection of Analytes”)."}, "[4]": {"target": "T2, FAAH", "experiment": "FAAH activity assay, UPLC-MS/MS, lung protein isolates", "assay_type": "biochemical", "conditions": "lung protein 10 μg", "experimental": "as §2, §3, §4"}, "[5]": {"system": "FAAH", "design": "method as in Piomelli et al., 2006", "conditions": "rat brain membranes; ref Piomelli et al., 2006; read-out: IC50 reported for rat brain membranes; cited from earlier work"}, "[6]": {"system": "MGL and ABHD6", "experiment": "MAG degradative enzyme activity assay with JZL 184 and WWL 70 together, lung protein isolates", "assay_type": "biochemical", "conditions": "mouse lung", "experimental": "as §1\nSubstrate solutions were prepared by drying stock 19:2 MAG (50 nmol/reaction) under N2 steam and adding fatty acid free BSA (0.25%) and stock 50 mM Tris–HCl (pH = 8.0). The MGL substrate solution was then sonicated for 60 min while protein samples were prepared. […] MGL substrate solution was added to normalized protein (400 μL; 500 μL final volume) samples and incubated in a water bath at 37°C for 10 min (jejunum protein) or 30 min (lung protein). […] The products of the reaction were extracted via lipid extraction methods (see section “Lipid Extraction for Enzyme Assays”) and quantified via UPLC-MS/MS (see section “Quantitation of MAG Degradative Enzyme Activity Assay Products”).\nLipids were extracted using liquid-liquid extraction with chloroform (2.0 mL) followed by 0.8 mL 0.2-micron ultra-purified water. […] Products were detected and quantified via UPLC-MS/MS techniques (see section “UPLC-MS/MS Detection of Analytes”). […]"}, "[7]": {"conditions": "highest inhibitor concentration of range (1,000 nM)"}, "[8]": {"conditions": "lowest inhibitor concentration of range (3 nM)"}}}
{"molecule": "CN(Cc1cccc(-c2ccncc2)c1)C(=O)Oc1ccc(-c2ccc(C(N)=O)cc2)cc1", "note": "[WWL 70]", "values": [{"measurement": "MAG metabolism, product recovery (normalized response)", "setting": "[1]; highest concentration of range (10,000 nM)", "result": "33.07 ± 1.72", "unit": "%"}, {"measurement": "MAG metabolism, product recovery (normalized response)", "setting": "[1]; lowest concentration of range (3 nM)", "result": "87.89 ± 13.69", "unit": "%"}, {"measurement": "IC50", "setting": "[1]; mouse lung protein isolates 25 μg, WWL 70 3-10,000 nM alone, inhibition incomplete, read-out: IC50, inhibition of MAG metabolism (ABHD6 activity)", "result": 780, "unit": "nM"}, {"measurement": "blockade of MAG degradation, maximum", "setting": "[1]; protein isolates from lungs of healthy male mice, concentration-dependent", "result": "up to 66%"}, {"measurement": "IC50", "setting": "[2]", "result": "[…]"}]}
{"molecule": "NC(=O)c1cccc(-c2cccc(OC(=O)NC3CCCCC3)c2)c1", "note": "[URB597]", "values": [{"measurement": "FAAH activity (normalized response)", "setting": "[3]; [7]", "result": "7.37 ± 0.001", "unit": "%"}, {"measurement": "FAAH activity (normalized response)", "setting": "[3]; [8]", "result": "94.95 ± 7.89", "unit": "%"}, {"measurement": "FAE metabolism (normalized response)", "setting": "[4]; [7]", "result": "4.15 ± 0.46", "unit": "%"}, {"measurement": "FAE metabolism (normalized response)", "setting": "[4]; [8]", "result": "90.11 ± 8.58", "unit": "%"}, {"measurement": "IC50", "setting": "[5]", "result": "[…]"}]}
{"molecule": "O=C(Oc1ccc([N+](=O)[O-])cc1)N1CCC(C(O)(c2ccc3c(c2)OCO3)c2ccc3c(c2)OCO3)CC1", "note": "[JZL 184]", "values": [{"measurement": "MAG metabolism (normalized response)", "setting": "[6]; 10 μM WWL 70 plus JZL 184, highest concentration of range (10,000 nM)", "result": "22.32 ± 2.73", "unit": "%"}, {"measurement": "MAG metabolism (normalized response)", "setting": "[6]; 10 μM WWL 70 plus JZL 184, lowest concentration of range (3 nM)", "result": "94.25 ± 6.64", "unit": "%"}]}
